One assay addresses hV1a (Homo sapiens, UniProt P37288). Description: In vitro competition binding assay on hV1a receptor with scintillating proximity assay. Also noted: expressed in transfected cells; host or cells: CHO cells (membranes). The conditions noted are these: membranes from CHO cells expressing hV1a receptor; radiolabel [125I]-LVA; SPA; read-out: Binding Affinity Human V1a Ki. How it is done: b) In Vitro Competition Binding Assay on hV1a Receptor with Scintillating Proximity Assay
This assays allows to determine the affinity of the test compounds for the V1a receptor. Membranes from CHO cells expressing the hV1a receptor were resuspended in buffer containing 50 mM Tris-HCl, pH 7.4, 5 mM MgCl2 and 0.1% BSA (w/v). The membranes (5-10 μg) were mixed with 0.2 mg wheat-germ aglutinin (WGA) SPA bead (type A) and 0.03 nM of the radiolabel [^125I]-LVA (LVA being Linear Vasopressin Antagonist and is an analogue of AVP for competition binding experiments). Non-specific binding was determined in the presence of 1 μM AVP. The total assay volume was 100 μl. The plates (Corning 0 NBS plate) were incubated at room temperature for 2 hours and counted on a Mibrobeta plate counter. The tests compounds were used in concentrations of 30 μM, 10 μM, 1 μM, 300 nM, 100 nM, 10 nM, 1 nM, 100 pM, 10 pM. The competition binding data were analysed using the iterative, nonlinear, curve-fitting program, Graph pad “Prism”.
The binding affinities to the Via receptor of the sulfanilide derivatives claimed in the formula I were assessed using the above described in vitro biological assay. The values refer to the binding affinity (IC50; HM) of the example compounds according to formula I to the V1a receptor. From the values shown in Table 1 it can be derived that said test compounds according to formula I do show a significant binding to the Via receptor.

The target of another assay is T1, hOT receptor (Homo sapiens, UniProt P30559).
T1 construct: expressed in transfected cells; host or cells: HEK293EBNA cells (membranes)
T1 sequence (P30559 1-389): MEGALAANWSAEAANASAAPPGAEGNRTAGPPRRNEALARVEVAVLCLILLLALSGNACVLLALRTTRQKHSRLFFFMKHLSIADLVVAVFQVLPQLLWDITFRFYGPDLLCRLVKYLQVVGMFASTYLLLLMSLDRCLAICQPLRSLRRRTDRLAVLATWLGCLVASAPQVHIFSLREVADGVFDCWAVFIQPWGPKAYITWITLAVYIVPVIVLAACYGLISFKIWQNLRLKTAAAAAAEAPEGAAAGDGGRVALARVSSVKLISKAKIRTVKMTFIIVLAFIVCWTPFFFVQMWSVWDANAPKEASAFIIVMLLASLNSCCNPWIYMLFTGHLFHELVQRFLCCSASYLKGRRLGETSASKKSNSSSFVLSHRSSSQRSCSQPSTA
Description: In vitro competition binding assay on hOT receptor with scintillating proximity assay. The conditions noted are these: membranes from HEK293EBNA cells expressing hOT receptor; radiolabel [125I]-OVTA; SPA; read-out: Binding Affinity Human OT-R Ki. On the procedure: a) In Vitro Competition Binding Assay on hOT Receptor with Scintillating Proximity Assay (Pharmaceutical Manufacturing International, 1992, p. 49-53 by Cook, N. D. et al)
This assays allows to determine the affinity of the test compounds for the OT receptor. Membranes from HEK293EBNA cells expressing the hOT receptor were resuspended in buffer containing 50 mM Tris-HCl, pH 7.4, 5 mM MgCl2 and 0.1% BSA (w/v). The membranes (2-4 μg) were mixed with 0.1 mg wheat-germ aglutinin (WGA) SPA bead (type A) and 0.2 nM of the radiolabel [^125I]-OVTA (OVTA being […] and is an analogue of OT for competition binding experiments). Non-specific binding was determined in the presence of 1 μM Oxytocin. The total assay volume was 100 μl. The plates (Corning (D NBS plate) were incubated at room temperature for 30 min and counted on a Mibrobeta plate counter. The tests compounds were used in concentrations of 30 μM, 10 μM, 1 μM, 300 nM, 100 nM, 10 nM, 1 nM, 100 pM, 10 pM. The competition binding data were analysed using the iterative, nonlinear, curve-fitting program, “Prism”.
The binding affinities to the oxytocin receptor of the sulfanilide derivatives claimed in the formula I were assessed using the above described in vitro biological assay. The values refer to the binding affinity (IC50; μM) of the example compounds according to formula I to the Oxytocin receptor. From the values shown in Table 1 it can be derived that said test compounds according to formula I do show a significant binding to the oxytocin receptor.

The next assay addresses T2, hOT-R (Homo sapiens, UniProt P30559).
T2 construct: expressed in transfected cells; host or cells: HEK (Human Embryonic Kidney) cells
T2 sequence (P30559 1-389): T1 sequence (P30559 1-389)
Description: Inhibition of oxytocin mediated Ca2+-mobilization by FLIPR (HEK cells). The conditions noted are these: fluo-4, OT 40 nM. Type of assay: cell-based. The text has this: c) Functional Assay No. 1: Inhibition of Oxytocitn Mediated Ca^2+-Mobilization by FLIPR (Fluorescent Imaging Plate Reader)
FLIPR is a machine for fluorescence imaging using a laser that is capable of illuminating a 96-well plate and a means of simultaneously reading each well thus enabling rapid measurements on a large number of samples.
This assay intends to show the inhibition of the OT/OT-R mediated calcium mobilisation—being necessary to cause uterine contractions—by using test compounds of formula (I).
Preparing the plates: FLIPR-plates were pre-coated with PLL (Poly-L-Lysine) 10 μg/ml+0.1% gelatine to attach the HEK (Human Embryonic Kidney) cells for 30 min up to 2 days at 37° C. The cells were plated out into 96-well plates (60000 cells/well).
Labelling with fluo-4: […] fluo-4 (fluorescent marker) were dissolved in 20 μl pluronic acid (20% in DMSO). The dissolved fluo-4 was then diluted in 10 ml DMEM (Dubecco's Minimal Essential Medium-F12 medium without FCS (Fetal Calf Serum). The medium was removed from the plates, followed by one wash with DNEM-F12 medium. Now, 100 μl of the DMEM-F12 medium containing fluo-4 were added and the cells incubated for 1.5-2 h (HEK-cells). The cells now contain the fluorescent marker.
Buffer: 145 mM NaCl, 5 mM KCl, 1 mM MgCl2, 10 mM Hepes, 10 mM Glucose, EGTA (Ethylene-bis oxyethylene nitrilo tetraacetic acid). Adjust to pH 7.4.
Performance of the assay: A minimum of 80 μl/well of antagonists (5×) in the above buffer (1×) were prepared (96-well plates). The antagonists were added to the well-plates at different concentrations (30 μM, 10 μM, 1 μM, 300 nM, 100 nM, 10 nM, 1 nM, 100 pM, 10 pM).
OT is added at a concentration of 40 nM.
The fluorescent marker being sensitive to the amount of Ca^2+ mobilized within the cell may be quantified by the FLIPR machine.
The activities of the sulfanilide derivatives according to formula I were assessed using the above described in vitro biological assay. The values refer to the capacity of the example compounds according to formula I to effectively antagonize oxytocin-induced intracellular Ca^2+-mobilization mediated by the oxytocin receptor.

Assay [1] relates to oxytocin-induced uterine contractions in the rat. Description: In vivo model for inhibition of uterine contractions. Particulars: anaesthetised DES-treated non-pregnant female rat, route not given. On the procedure: f) In Vivo Model for Inhibition of Uterine Contractions
The assay intends to show the biological effect of tested compounds in an in vivo model of preterm labor, premature birth.
Non-pregnant Charles River CD(SD) BR female rats (9-10 weeks old, 200-250 g) were treated at 18 and 24 hours before the experiment with 250 μg/kg, i.p. diethylstilbestrol (DES). For the assay, the animal was anaesthetised by urethane (1.75 g/kg, i.p.) and placed on an homeothennic operating table. The trachea was isolated and cannulated with a suitable polyethylene (PE) tubing. A midline incision at the hypogastrium level was made and one uterine horn exposed, its cephalic end cannulated with a PE240 tubing and, after filling the internal cavity with 0.2 ml of sterile physiological saline, connected to a “Gemini” amplifying/recording system via a P231D Gould Statham pressure transducer. For the i.v. route of administration of the test compounds, one jugular vein was isolated and cannulated with a PE60 tubing connected to a butterfly needle to allow the administration by a dispensing syringe. In the case of intraduodenal administration of the test compounds, the duodenum was isolated and similarly cannulated through a small incision in its wall. One carotid artery was also isolated and cannulated with PE60 catheter and connected to a suitable syringe for blood sample collection (see below). After a stabilization period, the same dose of oxytocin was repeatedly injected intravenously at 30-min intervals. […] Further injections of the same dose of oxytocin were then made for a suitable time after treatment to assess inhibitory effects of the compounds under study. The contractile response of the uterus to oxytocin was quantified by measuring the intra-uterine pressure and the number of contractions. The effect of the reference and test compounds were evaluated by comparing pre- and post-treatment pressure values. In addition, at 2, 30, 90 and 210 minutes after test compound administration, a 0.5-ml blood sample was withdrawn from the cannulated carotid artery of each experimental animal. Plasma was obtained by standard laboratory procedure and the resulting samples were stored at −20° C.
The activities of the sulfanilide derivatives claimed in the Formula I were assessed using the above described in vivo biological assay. The values refer to the capacity of the example compound according to Formula I to effectively antagonize oxytocin-induced uterine contractions in the rat.

hV1a, sequence (P37288 whole entry): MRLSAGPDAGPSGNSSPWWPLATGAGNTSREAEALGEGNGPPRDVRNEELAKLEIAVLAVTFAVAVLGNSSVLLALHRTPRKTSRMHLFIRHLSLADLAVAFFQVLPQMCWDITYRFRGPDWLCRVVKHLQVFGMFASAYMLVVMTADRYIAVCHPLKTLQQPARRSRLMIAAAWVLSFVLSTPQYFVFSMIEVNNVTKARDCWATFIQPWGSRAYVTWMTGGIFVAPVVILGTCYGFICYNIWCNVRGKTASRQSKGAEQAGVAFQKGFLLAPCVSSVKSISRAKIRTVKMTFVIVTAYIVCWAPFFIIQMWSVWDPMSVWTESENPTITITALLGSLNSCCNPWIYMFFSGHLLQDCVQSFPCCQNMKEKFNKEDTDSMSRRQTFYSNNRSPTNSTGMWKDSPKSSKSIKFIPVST

In the case of `COc1ccc(N(CC(=O)Nc2ccc(C)cc2C)S(=O)(=O)c2ccc(OC)c(OC)c2)cc1` [2-[(3,4-Dimethoxy-benzenesulfonyl)-(4-methoxy-phenyl)amino]-N-(2,4-dimethyl-phenyl)-acetamide], the Ki at hV1a is 135 nM.
Consider `COc1ccc(N(CC(=O)NCCSc2ccccn2)S(=O)(=O)c2ccc(C)cc2)cc1` [2-[(4-Methoxy-phenyl)-(toluene-4-sulfonyl)-amino]-N-[2-(pyridin-2-ylsulfanyl)-ethyl]-acetamide], for which the Ki on hV1a is 430 nM.
With `COc1ccc(N(CC(=O)Nc2ccc(C)cc2C)S(=O)(=O)c2ccccc2)cc1` [2-[Benzenesulfonyl-(4-methoxy-phenyl)-amino]-N-(2,4-dimethyl-phenyl)-acetamide], the Ki on hV1a came to 45 nM.
Take `O=C(CN(c1ccc(Cl)cc1)S(=O)(=O)c1ccc(OCCN2CCOCC2)cc1)NN=C1C(=O)Nc2ccccc21` [Example 55, N-(4-chlorophenyl)-4-[2-(4-morpholinyl)ethoxy]-N-{2-oxo-2-[2-(2-oxo-1,2-dihydro-3H-indol-3-ylidene)hydrazino]ethyl}benzenesulfonamide]: the Ki on hOT receptor stood at 0.8 nM. The IC50 against hOT-R turned out to be 7 nM. Besides, the “% Reduction of Uterine Contraction” value in assay [1] (dose 0.3 mg/kg) is 4.3 ± 1.7%; in assay [1] (dose 1 mg/kg), 18.2 ± 3.7%; in assay [1] (dose 3 mg/kg), 39.8 ± 5.1%; in assay [1] (dose 10 mg/kg), 41.7 ± 12.5%; in assay [1] (dose 30 mg/kg) it was 71.3 ± 6.4%.
Regarding `O=C(CN(c1ccc(Cl)cc1)S(=O)(=O)c1ccc(NCCN2CCOCC2)cc1)N/N=C1\C(=O)Nc2ccccc21` [Example 65, N-(4-chlorophenyl)-4-{[2-(4-morpholinyl)ethyl]amino}-N-{2-oxo-2-[(2Z)-2-(2-oxo-1,2-dihydro-3H-indol-3-ylidene)hydrazino]ethyl}benzenesulfonamide], at hOT receptor, the Ki was determined as 6.9 nM. Further, half-maximal inhibition at hOT-R (IC50) required 49 nM.
For `Cc1ccc(N(CC(=O)N/N=C2\C(=O)Nc3ccccc32)S(=O)(=O)c2ccc(CCC(N)=O)cc2)cc1` [Example 66, 3-{4-[(4-methyl{2-oxo-2-[(2Z)-2-(2-oxo-1,2-dihydro-3H-indol-3-ylidene)hydrazino]ethyl}anilino)sulfonyl]phenyl}propanamide], in that order: 3.4 nM and 19 nM.
With `CN(C)CCCOc1ccc(S(=O)(=O)N(CC(=O)N/N=C2\C(=O)Nc3ccccc32)c2ccc(Cl)cc2)cc1` [Example 67, N-(4-chlorophenyl)-4-[3-(dimethylamino)propoxy]-N-{2-oxo-2-[(2Z)-2-(2-oxo-1,2-dihydro-3H-indol-3-ylidene)hydrazino]ethyl}benzenesulfonamide], the Ki on hOT receptor was 0.6 nM. The same molecule registered an IC50 on hOT-R of 13.6 nM. Besides, the “% Reduction of Uterine Contraction” value in assay [1] (dose 0.3 mg/kg) was determined as 9.3 ± 2.5%; in assay [1] (dose 1 mg/kg) it was 20.8 ± 2.2%; in assay [1] (dose 3 mg/kg), 34.4 ± 3.9%; in assay [1] (dose 10 mg/kg) it was 57.1 ± 4.8%; in assay [1] (dose 30 mg/kg), 67.4 ± 7.1%.
In the case of `COC(=O)c1cccc2c1NC(=O)/C2=N\NC(=O)CN(c1ccc(Cl)cc1)S(=O)(=O)c1ccc(OCCCN(C)C)cc1` [Example 70, Methyl (3Z)-3-({[4-chloro({4-[3-(dimethylamino)propoxy]phenyl}sulfonyl)anilino]acetyl}hydrazono)-2-oxo-2,3-dihydro-1H-indole-7-carboxylate], on hOT receptor, the Ki came out at 108 nM. 393 nM corresponded to half-maximal inhibition against hOT-R (IC50).
For `CN(C)CCCNC(=O)CCc1ccc(S(=O)(=O)N(CC(=O)N/N=C2\C(=O)Nc3ccccc32)c2ccc(Cl)cc2)cc1` [Example 71, 3-{4-[(4-chloro{2-oxo-2-[(2Z)-2-(2-oxo-1,2-dihydro-3H-indol-3-ylidene)hydrazino]ethyl}anilino)sulfonyl]phenyll}-N-[3-(dimethylamino)propyl]propanamide], in that order: 0.7 nM and 14 nM.
